Test results published in patent US8476197B2, “Aminopropenoates as fungicides” (priority 2009, dated 2013).
Marks after values point to notes of the source that are not given here.

details: pH 2.3

Log P	Compound
2.58	COC(=O)C(C#N)=C(Nc1ccccc1OC)c1cccnc1Cl [Compound 335]
2.98	COC(=O)C(C#N)=C(NCc1ccc(Cl)cc1)c1cccnc1Cl [Compound 336]
2.11	COC(=O)C(C#N)=C(NCc1ccc(Cl)nc1)c1cccnc1Cl [Compound 338]
3.04	COC(=O)C(C#N)=C(Nc1cccc(SC)c1)c1cccnc1Cl [Compound 339]
3.55	CSc1ccccc1NC(=C(C#N)C(=O)OCC(F)(F)F)c1cccnc1Cl [Compound 344]
3.94	CCOC(=O)C(C#N)=C(Nc1ccccc1SC)c1cc(Cl)cnc1Cl [Compound 346]
4.15	CSc1ccccc1NC(=C(C#N)C(=O)OCC(C)C)c1cccnc1Cl [Compound 347]

Compound	Log P
COC(=O)C(C#N)=C(Nc1ccccc1SC)c1cccnc1Cl [Compound 334]	2.82^[c]; 2.82^[b]
CCOC(=O)C(C#N)=C(Nc1ccccc1SC)c1cccnc1Cl [Compound 341]	3.32
CCOC(=O)C(C#N)=C(Nc1ccccc1SC)c1ccc(C)nc1Cl [Compound 343]	3.57
CCOC(=O)C(C#N)=C(Nc1ccccc1SC)c1ccc(Cl)nc1Cl [Compound 360]	3.97

same assay, conditions: pH 2.7

Compound	Log P
COC(=O)C(C#N)=C(NC(C)c1ccc(Cl)cc1)c1cccnc1Cl (stereo not drawn) [Compound 332]	3.24^[a]
COC(=O)C(C#N)=C(NC(C)(C)c1ccc(Cl)cc1)c1cccnc1Cl [Compound 337]	3.33^[a]
CCOC(=O)C(C#N)=C(NC(C)c1ccc(Cl)cc1)c1cn(C)nc1C(F)F (stereo not drawn) [Compound 348]	3.6^[a]
CCOC(=O)C(C#N)=C(Nc1ccccc1SC)c1cn(C)nc1C(F)F [Compound 349]	3.13^[a]
CCOC(=O)C(C#N)=C(Nc1ccccc1SC)c1ncc(C(F)(F)F)cc1Cl [Compound 350]	4.26^[a]
CCOC(=O)C(C#N)=C(NC(C)c1ccc(Cl)cc1)c1ncc(C(F)(F)F)cc1Cl (stereo not drawn) [Compound 351]	4.56^[a]
CCOC(=O)C(C#N)=C(NC(C)c1ccc(Cl)cc1)c1c(C)nn(C)c1F (stereo not drawn) [Compound 352]	3.62^[a]
CCOC(=O)C(C#N)=C(Nc1ccccc1SC)c1c(C)nn(C)c1F [Compound 354]	3.21^[a]
CCOC(=O)C(C#N)=C(NC(C)c1ccc(Cl)cc1)c1nsc(Cl)c1Cl (stereo not drawn) [Compound 355]	4.65^[a]
COC(=O)C(C#N)=C(NC(C)c1ccc(Cl)cc1)c1cn(C)nc1C(F)F (stereo not drawn) [Compound 356]	3.31^[a]
COC(=O)C(C#N)=C(Nc1ccccc1SC)c1cn(C)nc1C(F)F [Compound 357]	2.8^[a]
CCOC(=O)C(C#N)=C(Nc1ccccc1SC)c1nsc(Cl)c1Cl [Compound 358]	4.31^[a]
CCOC(=O)C(C#N)=C(NC(C)c1ccc(Cl)cc1)c1conc1C (stereo not drawn) [Compound 362]	3.62^[a]
CCOC(=O)C(C#N)=C(Nc1ccccc1SC)c1conc1C [Compound 363]	3.21^[a]
CCOC(=O)C(C#N)=C(NC(C)c1ccc(Cl)cc1)c1sccc1Br (stereo not drawn) [Compound 365]	4.42^[a]
CCOC(=O)C(C#N)=C(Nc1ccccc1SC)c1sccc1Br [Compound 366]	3.96^[a]
CCOC(=O)C(C#N)=C(NC(C)c1ccc(Cl)cc1)c1c(C)nn(C)c1Cl (stereo not drawn) [Compound 367]	3.8^[a]
CCOC(=O)C(C#N)=C(NC(C)c1ccc(Cl)cc1)c1sccc1C(F)(F)F (stereo not drawn) [Compound 368]	4.47^[a]
CCOC(=O)C(C#N)=C(Nc1ccccc1SC)c1sccc1C(F)(F)F [Compound 369]	4.01^[a]
COC(=O)C(C#N)=C(NC(C)(C)c1ccccc1)c1cccnc1Cl [Compound 370]	2.98^[a]
COC(=O)C(C#N)=C(NC(C)c1ccncc1)c1cccnc1Cl (stereo not drawn) [Compound 371]	1.24^[a]
CCC(NC(=C(C#N)C(=O)OC)c1cccnc1Cl)c1cccc(Cl)c1 (stereo not drawn) [Compound 372]	3.58^[a]
COC(=O)C(C#N)=C(NC(C)c1ccccc1C)c1cccnc1Cl (stereo not drawn) [Compound 373]	3.15^[a]
COC(=O)C(C#N)=C(NC(C)c1ccc(Cl)cc1Cl)c1cccnc1Cl (stereo not drawn) [Compound 374]	3.73^[a]
COC(=O)C(C#N)=C(NC(C)c1ccccc1Cl)c1cccnc1Cl (stereo not drawn) [Compound 375]	3.19^[a]
COC(=O)C(C#N)=C(NC1(c2c(F)cccc2F)CC1)c1cccnc1Cl [Compound 380]	2.8^[a]
COC(=O)C(C#N)=C(NC(C)c1cc(Cl)cc(Cl)c1)c1cccnc1Cl (stereo not drawn) [Compound 388]	3.68^[a]

The remaining lines, values ahead:

Log P	Compound
3.58^[a]	CCC(NC(=C(C#N)C(=O)OC)c1cccnc1Cl)c1ccc(Cl)cc1 (stereo not drawn) [Compound 376]
2.89^[a]	COC(=O)C(C#N)=C(NC(C)c1cccc(OC)c1)c1cccnc1Cl (stereo not drawn) [Compound 377]
3.02^[a]	CCOc1ccc(C(C)NC(=C(C#N)C(=O)OC)c2cccnc2Cl)cc1 (stereo not drawn) [Compound 378]
4^[a]	COC(=O)C(C#N)=C(NC(C)c1ccc(C(C)C)cc1)c1cccnc1Cl (stereo not drawn) [Compound 379]
3.58^[a]	COC(=O)C(C#N)=C(NC(c1ccc(Cl)cc1)C1CC1)c1cccnc1Cl (stereo not drawn) [Compound 381]
2.61^[a]	COC(=O)C(C#N)=C(NC1(c2ccccc2Cl)CC1)c1cccnc1Cl [Compound 382]
3.11^[a]	COC(=O)C(C#N)=C(NC1(c2cccc(Cl)c2)CC1)c1cccnc1Cl [Compound 383]
3.19^[a]	COC(=O)C(C#N)=C(NC1(c2ccc(Cl)cc2)CC1)c1cccnc1Cl [Compound 384]
2.98^[a]	COC(=O)C(C#N)=C(NC(C)(C)c1c(F)cccc1F)c1cccnc1Cl [Compound 385]
3.02^[a]	COC(=O)C(C#N)=C(NC(C)(C)c1ccc(OC)cc1)c1cccnc1Cl [Compound 386]
3.58^[a]	COC(=O)C(C#N)=C(NC(C)c1ccc(Cl)c(Cl)c1)c1cccnc1Cl (stereo not drawn) [Compound 387]
2.98^[a]	COC(=O)C(C#N)=C(NC(CC(F)(F)F)c1ccccc1)c1cccnc1Cl (stereo not drawn) [Compound 389]
2.93^[a]	COC(=O)C(C#N)=C(NC(c1cccc(Cl)c1)C1CC1)c1cccnc1Cl (stereo not drawn) [Compound 390]
3.15^[a]	CCC(NC(=C(C#N)C(=O)OC)c1cccnc1Cl)c1ccccc1OC (stereo not drawn) [Compound 391]
2.84^[a]	COC(=O)C(C#N)=C(NC(C)c1ccccc1OC)c1cccnc1Cl (stereo not drawn) [Compound 392]
3.15^[a]	COC(=O)C(C#N)=C(NC(C)(C)c1ccccc1Cl)c1cccnc1Cl [Compound 393]
3.28^[a]	COC(=O)C(C#N)=C(NC(C)c1cc(Cl)ccc1Cl)c1cccnc1Cl (stereo not drawn) [Compound 394]
3.37^[a]	COC(=O)C(C#N)=C(NC(C)c1ccc(C(F)(F)F)cc1)c1cccnc1Cl (stereo not drawn) [Compound 395]

same assay, conditions: pH 7.5

Log P	Compound
2.56	COC(=O)C(C#N)=C(Nc1ccccc1OC)c1cccnc1Cl [Compound 335]
2.96	COC(=O)C(C#N)=C(NCc1ccc(Cl)cc1)c1cccnc1Cl [Compound 336]
2.1	COC(=O)C(C#N)=C(NCc1ccc(Cl)nc1)c1cccnc1Cl [Compound 338]
2.83	COC(=O)C(C#N)=C(Nc1cccc(SC)c1)c1cccnc1Cl [Compound 339]
3.61	CCOC(=O)C(C#N)=C(NC(C)c1ccc(Cl)cc1)c1cccnc1Cl (stereo not drawn) [Compound 342]
3.21	CSc1ccccc1NC(=C(C#N)C(=O)OCC(F)(F)F)c1cccnc1Cl [Compound 344]
3.63	CCOC(=O)C(C#N)=C(NC(C)c1ccc(Cl)cc1)c1cccnc1Cl (stereo not drawn) [Compound 345]
3.7	CCOC(=O)C(C#N)=C(Nc1ccccc1SC)c1cc(Cl)cnc1Cl [Compound 346]
3.94	CSc1ccccc1NC(=C(C#N)C(=O)OCC(C)C)c1cccnc1Cl [Compound 347]

Compound	Log P
COC(=O)C(C#N)=C(Nc1ccccc1SC)c1cccnc1Cl [Compound 334]	2.82^[c]; 2.82^[b]
CCOC(=O)C(C#N)=C(Nc1ccccc1SC)c1cccnc1Cl [Compound 341]	3.17
CCOC(=O)C(C#N)=C(Nc1ccccc1SC)c1ccc(C)nc1Cl [Compound 343]	3.41
CCOC(=O)C(C#N)=C(Nc1ccccc1SC)c1ccc(Cl)nc1Cl [Compound 360]	3.79
